Earlier results on 1 compound are cited in PMC8305651 (International Journal of Molecular Sciences, 2021).

For the data set the following is noted: cited from earlier work.

Regarding `O=c1cc(-c2ccc(O)c(O)c2)oc2cc(O)cc(O)c12` [luteolin], the bioavailability result is “low bioavailability”.
